According to PubChem BioAssay AID493105 (The Scripps Research Institute Molecular Screening Center, 2011):
Activity calls are given as the source filed them. No rule for the calls is given here.

How the values were obtained:
Assay in all cases: LYPLA1 and LYPLA2 inhibitors, biochemical, gel-based ABPP, fluorescence, recombinant and endogenous enzyme (AID 493105)
rhLYPLA1 = conditions: fluorescent probe labeling, soluble fraction, at 20 µM, active compounds read high
rhLYPLA2 = conditions: fluorescent probe labeling, membrane fraction, at 20 µM, active compounds read high
emLYPLA2 = conditions: fluorescent probe labeling, membrane fraction, at 20 µM, active compounds read high
emLYPLA1 = conditions: fluorescent probe labeling, membrane fraction, at 20 µM, active compounds read high

Compound | inhibition (rhLYPLA1) | inhibition (rhLYPLA2) | inhibition (emLYPLA2) | inhibition (emLYPLA1)
CSc1ccccc1OCc1cc(C(=O)N2CCC(Oc3cccnc3)CC2)no1 | 0% (inactive) | 6% (inactive) | 16% (inactive) | –
COc1ccc(-n2c(C)c([N+](=O)[O-])c3ccc(O)c(CN4CCCCC4)c32)cc1 | 21% (inactive) | 0% (inactive) | 0% (inactive) | 0% (inactive)
COc1ccc(OCC(O)CN2CCC(CN3C(=O)c4cccc5cccc(c45)C3=O)CC2)cc1 (centres undefined) | 0% (inactive) | 9% (inactive) | 16% (inactive) | 0% (inactive)
Nc1nc(NCc2ccco2)nc(N2CCN(Cc3ccccc3)CC2)c1[N+](=O)[O-] | 2% (inactive) | 5% (inactive) | 1% (inactive) | –
O=C(O)c1ccc2c(c1)C(=O)N(CCCCCCCN1C(=O)c3ccc(C(=O)O)cc3C1=O)C2=O | 65% | 0% (inactive) | 3% (inactive) | 23% (inactive)
O=C(c1cc(COc2cccc(C(F)(F)F)c2)on1)N1CCC(Oc2cccnc2)CC1 | 0% (inactive) | 0% (inactive) | 0% (inactive) | –
O=C(CCCCCCN1C(=O)c2ccccc2C1=O)N1CCC(c2ccccc2)C1 (centres undefined) | 17% (inactive) | 2% (inactive) | 17% (inactive) | 0% (inactive)
COc1ccc(N2CCN(C(=O)C3CCC(Cn4c(=S)[nH]c5ccccc5c4=O)CC3)CC2)cc1 (centres undefined) | 0% (inactive) | 45% | 67% | 2% (inactive)
N#Cc1c(N)nc(SCc2ccncc2)c(C#N)c1-c1cccs1 | 3% (inactive) | 11% (inactive) | 16% (inactive) | 10% (inactive)
Cc1ccc([N+](=O)[O-])c(OCCCN2CCC(Cc3ccccc3)CC2)c1 | 7% (inactive) | 0% (inactive) | 2% (inactive) | 0% (inactive)
O=[N+]([O-])c1ccc(N2CCC(=NOCc3ccc(Cl)cc3)CC2)cc1 | 22% (inactive) | 0% (inactive) | 13% (inactive) | 12% (inactive)
O=C(CN1CCN(C(=O)c2ccco2)CC1)Nc1cc(C(F)(F)F)ccc1Cl | 78% | 0% (inactive) | 13% (inactive) | 60%
O=C(CN1CCN(C(=O)c2ccco2)CC1)Nc1cc(Cl)ccc1Cl | 60% | 0% (inactive) | 0% (inactive) | 37%
Cc1ccc(CN2CCN(/N=C/C=C/c3ccccc3[N+](=O)[O-])CC2)cc1 | 27% (inactive) | 10% (inactive) | 26% (inactive) | 0% (inactive)
O=C(CN1CCN(C(=O)c2ccccc2)CC1)Nc1cc(S(=O)(=O)N2CCCC2)ccc1Cl | 55% | 3% (inactive) | 14% (inactive) | 21% (inactive)
COc1ccc(C(CNC(=O)COc2ccc(-c3ccccc3)cc2)N2CCOCC2)cc1 (centres undefined) | 5% (inactive) | 0% (inactive) | 1% (inactive) | 0% (inactive)
COc1ccc(-n2nc(C(=O)NCC(=O)N3CCN(Cc4ccccc4)CC3)c3ccccc3c2=O)cc1OC | 16% (inactive) | 7% (inactive) | 15% (inactive) | 23% (inactive)
Cc1[nH]c2ccccc2c1C(=O)CN1CCN(C/C=C/c2ccccc2)CC1 | 0% (inactive) | 0% (inactive) | 0% (inactive) | 0% (inactive)

Compound | inhibition (rhLYPLA1) | inhibition (rhLYPLA2) | inhibition (emLYPLA2) | inhibition (emLYPLA1)
Cc1ccc(OCC(=O)N2CCN(c3ccc([N+](=O)[O-])c(N4CCOCC4)c3)CC2)cc1 | 10% (inactive) | 0% (inactive) | 0% (inactive) | 0% (inactive)
O=c1[nH]c(CN2CCN(C/C=C/c3ccccc3)CC2)nc2cc(Cl)ccc12 | 3% (inactive) | 0% (inactive) | 2% (inactive) | –
O=C(/C=C/c1ccc(Br)cc1)N1CCN(c2cccc(C(F)(F)F)c2)CC1 | 16% (inactive) | 15% (inactive) | 16% (inactive) | –
COc1ccc(N2CCN(C(=O)CCCCCn3c(=O)[nH]c4ccsc4c3=O)CC2)cc1 | 0% (inactive) | 6% (inactive) | 6% (inactive) | –
Cc1ccc(N2CCN(C3=NC(=O)/C(=C\c4cccs4)S3)CC2)cc1 | 0% (inactive) | 5% (inactive) | 0% (inactive) | –
O=C(c1ccc(-c2ccccc2)c(F)c1)C1CCCN(C(=O)c2cncs2)C1 (centres undefined) | 0% (inactive) | 6% (inactive) | 12% (inactive) | –
COc1ccc(-n2nc(C(=O)NCC(=O)N3CCN(Cc4ccccc4)CC3)c3ccccc3c2=O)cc1 | 17% (inactive) | 17% (inactive) | 43% | –
O=C(/C=C/c1ccccc1)N1CCN(CCN2C(=O)c3cccc4cccc(c34)C2=O)CC1 | 15% (inactive) | 18% (inactive) | 34% | –
O=C(COc1ccc(Cl)cc1)N1CCN(C/C=C/c2ccccc2)CC1 | 0% (inactive) | 12% (inactive) | 25% (inactive) | –
CCOc1ccc(NC(=S)NC(=O)c2c(Br)cnn2C)c([N+](=O)[O-])c1 | 17% (inactive) | 5% (inactive) | 16% (inactive) | –
O=C(c1ccc(S(=O)(=O)N2CCCCC2)cc1)N1CCN(CCN2C(=O)c3cccc4cccc(c34)C2=O)CC1 | 11% (inactive) | 20% (inactive) | 27% (inactive) | –
Cc1cc(OCc2cc(C(=O)N3CCC(Oc4cccnc4)CC3)no2)cc(C)c1Cl | 0% (inactive) | 3% (inactive) | 5% (inactive) | –
COc1ccc(C(=O)NC(=S)Nc2ccc(N3CCOCC3)c(Cl)c2)cc1[N+](=O)[O-] | 7% (inactive) | 5% (inactive) | 1% (inactive) | –
O=C(NC(=S)Nc1sc2c(c1C(=O)O)CCCC2)c1ccccc1 | 2% (inactive) | 34% | 52% | –
O=C(COc1ccc(Cl)cc1)N1CCN(c2ccc([N+](=O)[O-])c(N3CCCCC3)c2)CC1 | 36% | 5% (inactive) | 10% (inactive) | –
COc1ccc(S(=O)(=O)Nc2ccc(Cc3ccncc3)cc2)cc1C | 12% (inactive) | 0% (inactive) | 0% (inactive) | –
COc1cc([C@H]2Oc3cc([C@H]4Oc5cc(O)cc(O)c5C(=O)[C@@H]4O)ccc3O[C@@H]2CO)ccc1O | 13% (inactive) | 28% (inactive) | 42% | –
COc1ccccc1-c1csc(-n2ncc(C#N)c2N)n1 | 0% (inactive) | 4% (inactive) | 6% (inactive) | –
